Data taken from ChEMBL document CHEMBL1155670, “Identification of deoxymiroestrol as the actual rejuvenating principle of "Kwao Keur", Pueraria mirifica. The known miroestrol may be an artifact” (J Nat Prod, 2000).
Activity calls are given as the source filed them. The rule behind the calls is not given here.

Columns and labels:
MCF7 [1] = assay: Growth promoting activity in human MCF7 cells after 7 days by colorimetric methylene blue assay in presence of Toremifene; type: functional, cell-based
MCF7 [2] = assay: Growth promoting activity in human MCF7 cells at >10 nM after 7 days by colorimetric methylene blue assay in presence of Toremifene; type: functional, cell-based

SMILES | Activity (MCF7 [1]) | Activity (MCF7 [2])
CC1(C)[C@@H]2C[C@]3(O)CC(=O)[C@@H](C4=COc5cc(O)ccc5[C@H]41)[C@@H]2[C@H]3O | Active | Active
CC1(C)[C@@H]2C[C@]3(O)CC(=O)[C@@](O)(C4=COc5cc(O)ccc5[C@H]41)[C@@H]2[C@H]3O | Active | Active
